Measured values as given in PubChem BioAssay (NCI).
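Method: 48-hour compound exposure of cells in 96-well plates, five concentrations, linear interpolation of endpoints. At the GI50, growth is halved. TGI marks complete inhibition of growth.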

Legend:
Experiment in all cases: DTP human tumour cell line panel, 48 h
A498 renal = system: A498 renal
DU-145 prostate = system: DU-145 prostate
K-562 leukemia = system: K-562 leukemia
PC-3 prostate = system: PC-3 prostate
SF-295 CNS = system: SF-295 CNS
SK-OV-3 ovarian = system: SK-OV-3 ovarian
SNB-19 CNS = system: SNB-19 CNS
TK-10 renal = system: TK-10 renal
U251 CNS = system: U251 CNS
UACC-62 melanoma = system: UACC-62 melanoma

Structure (SMILES)	TGI (A498 renal)	TGI (DU-145 prostate)	TGI (K-562 leukemia)	TGI (PC-3 prostate)	TGI (SF-295 CNS)	TGI (SK-OV-3 ovarian)	TGI (SNB-19 CNS)	TGI (TK-10 renal)	TGI (U251 CNS)	TGI (UACC-62 melanoma)	GI50 (A498 renal)	GI50 (DU-145 prostate)	GI50 (K-562 leukemia)	GI50 (PC-3 prostate)	GI50 (SF-295 CNS)	GI50 (SK-OV-3 ovarian)	GI50 (SNB-19 CNS)	GI50 (TK-10 renal)	GI50 (UACC-62 melanoma)	GI50 (U251 CNS)
CS(=O)(=O)OC1CN2CCC1CC2 (stereo unspecified)	> 100 µM	> 100 µM	> 100 µM	> 100 µM	> 100 µM	> 100 µM	> 100 µM	> 100 µM	> 100 µM	> 100 µM	–	–	–	–	–	–	–	–	–	–
Cc1ccc(NP(=O)(Oc2ccccc2)N(CCCl)CCCl)cc1 (stereo unspecified)	> 100 µM	–	> 100 µM	–	> 100 µM	> 100 µM	–	> 100 µM	> 100 µM	> 100 µM	–	–	–	–	–	–	–	–	–	–
C=CCc1cc(-c2cc(CC=C)c(O)c(CNC)c2)cc(CNC)c1O	34.6 µM	–	27.3 µM	–	31 µM	–	26.1 µM	32.1 µM	28.4 µM	31.9 µM	–	–	–	–	–	–	–	–	–	–
O=C1N(c2ccccc2)C2(c3ccccc3)CC3CCCC13S2 (stereo unspecified)	> 100 µM	> 100 µM	> 100 µM	90.3 µM	> 100 µM	> 100 µM	> 100 µM	1.84 µM	> 100 µM	> 100 µM	–	–	–	–	–	–	–	–	–	–
CCN(CC)CCCC(C)Nc1ccnc2cc3ccccc3cc12 (stereo unspecified)	39.9 µM	> 100 µM	> 100 µM	> 100 µM	24.6 µM	50 µM	84.5 µM	78.6 µM	42.1 µM	49.1 µM	–	–	–	–	–	–	–	–	–	–
O=C(O)c1cc(=O)[nH]c(SCc2ccccc2)n1	> 100 µM	> 100 µM	> 100 µM	> 100 µM	> 100 µM	–	> 100 µM	> 100 µM	> 100 µM	> 100 µM	–	–	–	–	–	–	–	–	–	–
CSc1nc(NC2OCC(OC(C)=O)C(OC(C)=O)C2OC(C)=O)c(N=C(C)C(C)=O)c(=O)[nH]1 (stereo unspecified)	> 100 µM	–	> 100 µM	–	> 100 µM	–	> 100 µM	> 100 µM	> 100 µM	–	–	–	–	–	–	–	–	–	–	–
COc1ccc(C2CC(c3cccc(Nc4ccncc4)c3)=NN2c2ccc(Cl)cc2)cc1 (stereo unspecified)	8.16 µM	3.17 µM	4.37 µM	2.96 µM	3.3 µM	5.79 µM	3.23 µM	3.5 µM	–	3.22 µM	1.52 µM	1.74 µM	1.6 µM	1.44 µM	1.85 µM	2.19 µM	1.66 µM	1.82 µM	1.73 µM	–
CCCCCCCCCCCCCCCc1ccc(OCC(O)CO)cc1 (stereo unspecified)	> 100 µM	–	> 100 µM	–	> 100 µM	> 100 µM	> 100 µM	> 100 µM	55.9 µM	48 µM	–	–	–	–	–	–	–	–	–	–
CCN1C=C/C(=C\C=C/c2cc[n+](CC)c3ccccc23)c2ccccc21	8.78 µM	26.3 µM	–	17.3 µM	12.5 µM	15.1 µM	15.2 µM	28.1 µM	13 µM	23.8 µM	–	–	–	–	–	–	–	–	–	–
Cc1cccc2cc3c(ccc4ccccc43)c[n+]12	–	> 100 µM	> 100 µM	> 100 µM	41.5 µM	–	50.9 µM	> 100 µM	40.6 µM	63.1 µM	–	–	–	–	–	–	–	–	–	–
Nc1cc2c(nnn2C2OC(COCc3ccccc3)C(OCc3ccccc3)C2OCc2ccccc2)c(=O)[nH]1 (stereo unspecified)	> 100 µM	> 100 µM	84.6 µM	> 100 µM	> 100 µM	> 100 µM	> 100 µM	52.1 µM	> 100 µM	38.1 µM	–	–	–	–	–	–	–	–	–	–
O=C(C[C@H](NC(=O)OCc1ccccc1)C(=O)NC1Cc2ccccc2OC1=O)OCc1ccccc1 (stereo partly specified)	> 100 µM	> 100 µM	49.2 µM	70.2 µM	–	> 100 µM	> 100 µM	–	> 100 µM	–	–	–	–	–	–	–	–	–	–	–
O=S1(=O)C(c2ccccc2)C(N2CCCCC2)C1C1CC2c3ccccc3C1c1ccccc12 (stereo unspecified)	> 100 µM	> 100 µM	> 100 µM	> 100 µM	> 100 µM	> 100 µM	> 100 µM	> 100 µM	> 100 µM	> 100 µM	–	–	–	–	–	–	–	–	–	–
O=C(C=P(c1ccccc1)(c1ccccc1)c1ccccc1)c1cccc(-c2cccc([N+](=O)[O-])c2)c1	7.87 µM	> 100 µM	> 100 µM	20.9 µM	35.3 µM	51.2 µM	> 100 µM	> 100 µM	> 100 µM	–	–	–	–	–	–	–	–	–	–	–
O=Cc1cc([N+](=O)[O-])no1	> 100 µM	> 100 µM	38.6 µM	> 100 µM	> 100 µM	> 100 µM	> 100 µM	> 100 µM	> 100 µM	46.3 µM	–	–	–	–	–	–	–	–	–	–
CC(C)(C)OC(=O)NCC(=O)NC1c2ccsc2/C(=N/O)[C@H]1O (stereo partly specified)	> 100 µM	> 100 µM	> 100 µM	> 100 µM	> 100 µM	> 100 µM	> 100 µM	> 100 µM	> 100 µM	> 100 µM	–	–	–	–	–	–	–	–	–	–
CCOC(=O)C[C@@H]1C2(C=C[C@@]13CO3)OCC(C)(C)CO2	> 100 µM	> 100 µM	> 100 µM	> 100 µM	> 100 µM	> 100 µM	–	> 100 µM	> 100 µM	> 100 µM	–	–	–	–	–	–	–	–	–	–
C#CCn1ncc2c(SC)ncnc21	> 100 µM	> 100 µM	> 100 µM	> 100 µM	> 100 µM	> 100 µM	> 100 µM	> 100 µM	> 100 µM	> 100 µM	–	–	–	–	–	–	–	–	–	–
Nc1ccc(-c2cssc2=S)cc1	–	–	> 100 µM	> 100 µM	> 100 µM	> 100 µM	> 100 µM	> 100 µM	> 100 µM	94.9 µM	–	–	–	–	–	–	–	–	–	–
CCCCCCNC(=O)c1cc(CCc2cc(O)ccc2O)ccc1O	15.4 µM	22.7 µM	8.87 µM	6.49 µM	31.3 µM	25 µM	> 50.6 µM	9.15 µM	5.58 µM	10.1 µM	–	–	–	–	–	–	–	–	3.26 µM	–
CC(=O)Nc1ccc(N=C2C(c3ccccc3)=C(SC3=C(c4ccccc4)C(=Nc4ccc(NC(C)=O)cc4)c4ccccc43)c3ccccc32)cc1	87.1 µM	> 100 µM	> 100 µM	> 100 µM	> 100 µM	> 100 µM	> 100 µM	> 100 µM	> 100 µM	–	–	–	–	–	–	–	–	–	–	–
CO/C=C(/C(=O)OC)c1ccccc1[C@@H]1CC1c1cccc(F)c1 (stereo partly specified)	95.9 µM	> 100 µM	> 100 µM	> 100 µM	> 100 µM	79.7 µM	> 100 µM	> 100 µM	> 100 µM	50.2 µM	–	–	–	–	–	–	–	–	–	–
O=c1cc(-c2ccc(O)cc2)n(C2CC2)c2ccccc12	–	21.5 µM	> 100 µM	92.3 µM	11.9 µM	42.6 µM	50.1 µM	–	21.6 µM	14.8 µM	–	–	–	–	–	–	–	–	–	–
O=C1CS(=O)(=O)C(c2cccc(Oc3ccccc3)c2)N1c1cccc(Cl)c1 (stereo unspecified)	–	> 100 µM	52.1 µM	> 100 µM	> 100 µM	> 100 µM	> 100 µM	63.1 µM	47.2 µM	29.4 µM	–	–	–	–	–	–	–	–	–	–
c1ccc(C2CC(c3cccc(Nc4ccncc4)c3)=NN2c2ccccc2)cc1 (stereo unspecified)	3.03 µM	4.02 µM	6.76 µM	3.58 µM	3.13 µM	5.49 µM	3 µM	3.6 µM	3.94 µM	3.04 µM	1.42 µM	1.95 µM	2.02 µM	1.69 µM	1.72 µM	2.38 µM	1.63 µM	1.86 µM	1.67 µM	1.87 µM
N#Cc1c(NC(=S)Nc2ccc(Cl)cc2)sc2c1CCCC2	> 100 µM	> 100 µM	> 100 µM	> 100 µM	> 100 µM	–	> 100 µM	> 100 µM	> 100 µM	> 100 µM	–	–	–	–	–	–	–	–	–	–
Cc1cc2c(cc1Cl)SC(c1ccccc1)C(=O)NS2(=O)=O (stereo unspecified)	75.5 µM	> 100 µM	> 100 µM	70.7 µM	95.6 µM	> 100 µM	–	> 100 µM	60.5 µM	–	–	–	–	–	–	–	–	–	–	–
CC(=O)Oc1c(C)c2c(O)c3c1C1=C(OCOC1=C(C)C3=O)/C(C)=C\C(C)(O)C(O)C(C)C(O)C1C(=O)OC(C(C)C1O)C(C)(O)/C=C/C=C(C)C(=O)N2 (stereo unspecified)	> 100 µM	> 100 µM	> 100 µM	> 100 µM	> 100 µM	> 100 µM	> 100 µM	–	> 100 µM	> 100 µM	–	–	–	–	–	–	–	–	–	–
Cc1nc2c(n1C)C(=O)c1nc(CBr)[nH]c(=O)c1C2=O	> 100 µM	–	> 100 µM	–	5.27 µM	> 100 µM	> 100 µM	> 100 µM	> 100 µM	> 100 µM	–	–	–	–	–	–	–	–	–	–
